Source: ChEMBL document CHEMBL4052813, “Achyrodimer F, a tyrosyl-DNA phosphodiesterase I inhibitor from an Australian fungus of the family Cortinariaceae” (Bioorg Med Chem Lett, 2017)

Experiments:
[1] = molecular target: T1, Tyrosyl-DNA phosphodiesterase 1 (Homo sapiens, UniProt Q9NUW8); assay: Inhibition of Tdp1 (unknown origin) up to 40 uM using 5'-(6-TAMN-AGGATCTAAAAGACTT-BHQ-)3' as substrate pretreated for 30 mins followed by substrate addition by fluorescence assay
[2] = molecular target: T1, Tyrosyl-DNA phosphodiesterase 1; assay: Inhibition of Tdp1 (unknown origin) using 5'-(6-TAMN-AGGATCTAAAAGACTT-BHQ-)3' as substrate pretreated for 30 mins followed by substrate addition by fluorescence assay

T1 sequence (Q9NUW8 whole entry): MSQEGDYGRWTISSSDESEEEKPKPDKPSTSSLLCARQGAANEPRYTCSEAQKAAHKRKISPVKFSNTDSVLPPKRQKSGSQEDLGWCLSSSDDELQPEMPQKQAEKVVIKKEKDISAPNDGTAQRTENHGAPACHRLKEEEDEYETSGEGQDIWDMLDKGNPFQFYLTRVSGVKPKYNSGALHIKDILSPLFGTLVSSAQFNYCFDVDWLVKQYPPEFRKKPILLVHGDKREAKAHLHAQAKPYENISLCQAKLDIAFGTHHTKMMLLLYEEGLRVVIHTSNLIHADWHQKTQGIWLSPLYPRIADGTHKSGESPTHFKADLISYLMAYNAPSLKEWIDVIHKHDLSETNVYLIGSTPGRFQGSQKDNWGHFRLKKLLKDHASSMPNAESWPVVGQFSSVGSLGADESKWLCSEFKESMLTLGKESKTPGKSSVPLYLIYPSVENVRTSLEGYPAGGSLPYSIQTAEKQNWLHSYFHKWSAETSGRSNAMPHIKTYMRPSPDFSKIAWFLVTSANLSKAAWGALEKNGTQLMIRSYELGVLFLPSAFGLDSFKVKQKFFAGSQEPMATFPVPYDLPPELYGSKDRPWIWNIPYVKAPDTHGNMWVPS

Row | SMILES | inhibition [1] | IC50 [2] [nM]
1 | O=c1cc(O)cc(/C=C/c2ccc(O)cc2)o1 | Dose-dependent effect | 
2 | O=c1cc(O)cc(/C=C/c2ccc(O)c(O)c2)o1 | Dose-dependent effect | 
3 | O=c1cc(O)cc([C@H]2[C@H](c3ccc(O)cc3)[C@H](c3cc(O)cc(=O)o3)[C@H]2c2ccc(O)cc2)o1 |  | 1000
